The results in this text go back to patent publication US5665745A, “Heterocyclic compounds and their preparation and use” (Eli Lilly and Company, priority 1995, dated 1997).

The target in assay [1] is T1, muscarinic receptors (M1 -site, pirenzepine sensitive site) (Rattus norvegicus, UniProt P08482).
T1 construct: from tissue; host or cells: cerebral cortex membranes of male Wistar rats
T1 sequence (P08482 1-460): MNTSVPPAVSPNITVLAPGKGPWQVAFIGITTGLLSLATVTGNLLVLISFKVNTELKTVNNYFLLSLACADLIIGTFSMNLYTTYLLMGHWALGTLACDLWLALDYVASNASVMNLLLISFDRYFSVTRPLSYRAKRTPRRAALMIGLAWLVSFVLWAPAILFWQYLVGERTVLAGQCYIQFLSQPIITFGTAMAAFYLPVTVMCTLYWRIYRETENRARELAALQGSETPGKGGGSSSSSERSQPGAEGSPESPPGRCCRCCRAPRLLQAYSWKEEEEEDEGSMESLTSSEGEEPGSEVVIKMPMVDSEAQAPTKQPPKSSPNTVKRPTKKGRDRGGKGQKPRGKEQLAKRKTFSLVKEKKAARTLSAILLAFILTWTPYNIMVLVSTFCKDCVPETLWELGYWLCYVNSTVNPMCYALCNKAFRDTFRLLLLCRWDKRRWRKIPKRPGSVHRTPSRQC
Nature of the assay: inhibition of ^3 HPRZ (pirenzepine, [N-methyl-^3 H]) binding to rat cerebral cortex membranes. Also noted: species or system rat (male Wistar. An outline of the steps: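 Male Wistar rat cortex membranes in 20 mM Hepes pH 7.4 were incubated with 1.0 nM (final) [3H]pirenzepine for 60 min at 20° C; nonspecific binding was defined with 1 μg/mL atropine. Filtration and scintillation counting were used, and IC50 was calculated from a single concentration assuming mass-action kinetics.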

For assay [2], the target named is muscarinic acetylcholine receptors. Nature of the assay: inhibition of specific binding of ^3 H-Oxotremorine-M (^3 H-Oxo). Also noted: species or system rat (male Wistar. Conditions: ^3 H-Oxotremorine 1.0 nM, rat cortex, 30 min. at 25° C. An outline of the steps:
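Rat cortex membranes (male Wistar) in 20 mM Hepes pH 7.4 incubated with 1.0 nM ^3H-Oxotremorine-M (final) and test compound for 30 min at 25 °C; arecoline defines non-specific binding. Bound radioactivity by filtration and scintillation counting; IC50 (nM) from a single concentration via Co/Cx mass-action formula, reflecting high- and medium-affinity sites.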

[3] abbreviates: ^3 HPRZ 1.0 nM, rat cortex, 60 min. at 20° C., read-out: ^3 HPRZ IC50 (head from b208 on: Pir IC-50).

Where two headings read alike, the source gives them in different places. A value given as a limit tells only on which side of the number the result lay.

On to `FC(F)(F)C(F)(F)C(F)(F)COc1nsnc1O[C@@H]1CN2CCC[C@H]1C2` (relative stereo) [Compound 187, (±)-endo-3-(4,4,4,3,3,2,2-Heptafluorobutoxy)-4-(1-azabicyclo[3.2.1]octyl-6-oxy)-1,2,5-thiadiazole], for which the IC50 in assay [1] was found to be 1.6 nM; in assay [2] it was 2.8 nM.
On to `CSCCOc1nsnc1O[C@@H]1CN2CCC[C@H]1C2` (relative stereo) [Compound 170, (±)-endo-3-(2-Methylthioethoxy)-4-(1-azabicyclo[3.2.1]octyl-6-oxy)-1,2,5-thiadiazole], for which the IC50 in assay [1] (setting [3]) came to 3 nM; in assay [2] it was 1.5 nM.
As to `FCCCCOc1nsnc1OC1CN2CCC1CC2` (racemic) [Compound 117, (±)-3-(4-Fluorobutyloxy)-4-(1-azabicyclo[2.2.2]octyl-3-oxy)-1,2,5-thiadiazole], the IC50 stood at 238 nM in assay [1] (setting [3]) and 32 nM in assay [2].
`Fc1ccc(CCCSc2nsnc2OC2CN3CCC2CC3)cc1` (racemic) [Compound 73, (±)3-[3-(4-Fluorophenyl)propylthio]-4-[-3-(1-azabicyclo[2.2.2]octyloxy)]-1,2,5-thiadiazole]: the IC50 was determined as 6.5 nM in assay [1] and 4.1 nM in assay [2].
For the compound `CC(C)=CCCOc1nsnc1O[C@@H]1CN2CCC[C@H]1C2` (relative stereo) [Compound 180, (±)-endo-3-(4-Methyl-3-pentenyloxy)-4-(1-azabicyclo[3.2.1]octyl-6-oxy)-1,2,5-thiadiazole], the IC50 in assay [1] (setting [3]) worked out at 11 nM; in assay [2], 4.7 nM.
Consider `Brc1ccc(OCCOc2nsnc2OC2CN3CCC2CC3)cc1` (racemic) [Compound 128, (±)-3-(2-[4-Bromophenoxy]ethoxy)-4-(1-azabicyclo[2.2.2]octyl-3-oxy)-1,2,5-thiadiazole], for which the IC50 in assay [1] (setting [3]) is 109 nM; in assay [2], 6.9 nM.
Turning to `CCCCOc1nsnc1OC[C@@H]1CCCN1` [Compound 32, (S)-3-Butyloxy-4-(2-pyrrolidinylmethyloxy)-1,2,5-thiadiazole], the concentration for half-maximal inhibition (IC50) in assay [1] (setting [3]) turned out to be 45 nM; in assay [2] it was 77 nM.
As for `C#CCCOc1nsnc1O[C@@H]1CN2CCC[C@H]1C2` (relative stereo) [Compound 186, (±)-endo-3-(3-Butynyloxy)-4-(1-azabicyclo[3.2.1]octyl-6-oxy)-1,2,5-thiadiazole], the IC50 came out at 2.8 nM in assay [1] (setting [3]) and 0.59 nM in assay [2].
In the same order, the values of `C#CC(C)Oc1nsnc1OC1CN2CCCC1C2` (mixture of isomers) [Compound 203, (±)-endo-3-(3-Butyn-2-oxy)-4-(1-azabicyclo[3.2.1]octyl-6-oxy)-1,2,5-thiadiazole] are 4.3 nM and 3.1 nM.
Take `CC#CCCOc1nsnc1O[C@@H]1CN2CCC[C@H]1C2` (relative stereo) [Compound 175, (±)-endo-3-(3-Pentynyloxy)-4-(1-azabicyclo[3.2.1]octyl-6-oxy)-1,2,5-thiadiazole]: the IC50 was determined as 2.7 nM in assay [1] (setting [3]) and 0.74 nM in assay [2].
Regarding `COc1ccc(CCCOc2nsnc2OC2CN3CCC2CC3)cn1` (racemic) [Compound 119, (±)-3-(3-[2-Methoxy-5-pyridyl]propyloxy)-4-(1-azabicyclo[2.2.2]octyl-3-oxy)-1,2,5-thiadiazole], the IC50 in assay [1] (setting [3]) was determined as 124 nM; in assay [2], 17 nM.
For the compound `CCCCSc1nsnc1O[C@@H]1CNC[C@H]1O` (relative stereo) [Compound 146, (±)-trans-3-Butylthio-4-(4-hydroxy-pyrollidin-3-oxy)-1,2,5-thiadiazole], the IC50 was greater than 1000 nM in assay [1] (setting [3]) and 775 nM in assay [2].
`N#Cc1ccc(CSc2nsnc2O[C@H]2CN3CCC[C@@H]2C3)cc1` (relative stereo) [Compound 49, (±)-endo-3-(4-Cyanobenzylthio)-4-(1-azabicyclo[3.2.1]octyl-6-oxy)-1,2,5-thiadiazole]: the IC50 in assay [1] (setting [3]) came to 1.9 nM; in assay [2], 1.8 nM.
For `C(=Cc1ccccc1)CSc1nsnc1OC1CN2CCC1CC2` (racemic) [Compound 149, (±)-3-(3-Phenyl-2-propenylthio)-4-(1-azabicyclo[2.2.2]octyl-3-oxy)-1,2,5-thiadiazole], the IC50 was 30 nM in assay [1] and 14 nM in assay [2].
As for `CCOc1nsnc1OC1CN2CCC1CC2` (racemic) [Compound 6, (±)-3-Ethoxy-4-(1-azabicyclo[2.2.2]octyl-3-oxy)-1,2,5-thiadiazole], the IC50 in assay [1] was found to be 32 nM; in assay [2] it was 17 nM.
Take `C1CC(COc2nsnc2OC2CN3CCC2CC3)C1` (racemic) [Compound 124, (±)-3-(Cyclobutylmethoxy)-4-(1-azabicyclo[2.2.2]octyl-3-oxy)-1,2,5-thiadiazole]: the IC50 worked out at 54 nM in assay [1] and 5.8 nM in assay [2].
`c1csc(COc2nsnc2O[C@@H]2CN3CCC[C@H]2C3)c1` (relative stereo) [Compound 173, (±)-endo-3-(2-Thienylmethoxy)-4-(1-azabicyclo[3.2.1]octyl-6-oxy)-1,2,5-thiadiazole]: the results for the IC50 in assay [1] (setting [3]) and in assay [2] were 1.4 nM and 1 nM, respectively.
For `c1nsnc1OCCOc1nsnc1OC1CN2CCC1CC2` (racemic) [Compound 132, (±)-3-(2-[3-{1,2,5-Thiadiazoyloxy}]ethoxy)-4-(1-azabicyclo[2.2.2]octyl-3-oxy)-1,2,5-thiadiazole], the IC50 in assay [1] came to 66 nM; in assay [2], 11 nM.
As to `CC(C)(CCOc1nsnc1O[C@@H]1CN2CCC[C@H]1C2)c1ccccc1` (relative stereo) [Compound 204, (±)-endo-3-(3-Methyl-3-phenylbutoxy)-4-(1-azabicyclo[3.2.1]octyl-6-oxy)-1,2,5-thiadiazole], the IC50 stood at 153 nM in assay [1] (setting [3]) and 59 nM in assay [2].
For `CCCCSc1nsnc1O[C@H]1CN2CCC[C@@H]1C2` [Compound 138, (5R,6R)-endo-3-Butylthio-4-(1-azabicyclo[3.2.1]octyl-6-oxy)-1,2,5-thiadiazole], the IC50 in assay [1] (setting [3]) stood at 0.47 nM; in assay [2] it was 0.65 nM.
In the case of `c1ccc2cc(CCOc3nsnc3O[C@@H]3CN4CCC[C@H]3C4)ccc2c1` (relative stereo) [Compound 178, (±)-endo-3-[2-(2-Napthyl)ethoxy]-4-(1-azabicyclo[3.2.1]octyl-6-oxy)-1,2,5-thiadiazole], the IC50 in assay [1] (setting [3]) came out at 61 nM; in assay [2], 15 nM.
Consider `CC(C)CCCSc1nsnc1OC1CN2CCC1CC2` (racemic) [Compound 39, (±)-3-(4-Methylpentylthio)-4-(1-azabicyclo[2.2.2]octyl-3-oxy)-1,2,5-thiadiazole], for which the figures for the IC50 in assay [1] and in assay [2] were 15 nM and 13 nM, respectively.
As to `ClCCCOc1nsnc1OC1CN2CCC1CC2` (racemic) [Compound 116, (±)-3-(3-Chloropropoxy)-4-(1-azabicyclo[2.2.2]octyl-3-oxy)-1,2,5-thiadiazole], the results for the IC50 in assay [1] and in assay [2] were 33 nM and 14 nM, respectively.
In the same order, the values of `FC(F)(F)c1ccc(SCCSc2nsnc2OC2CN3CCC2CC3)s1` (racemic) [Compound 55, (±)-3-(2-(2-Thio-5-trifluoromethylthienyl)ethylthio)-4-(1-azabicyclo[2.2.2]octyl-3-oxy)-1,2,5-thiadiazole] are 23 nM and 11 nM.
`c1ccc2c(c1)Sc1ccccc1N2CCCSc1nsnc1OC1CN2CCC1CC2` (racemic) [Compound 151, (±)-3-(3-[N-phenothiazinyl]propylthio)-4-(1-azabicyclo[2.2.2]octyl-3-oxy)-1,2,5-thiadiazole]: the figures for the IC50 in assay [1] (setting [3]) and in assay [2] were 2700 nM and 2070 nM, respectively.
In the same order, the values of `C1=CC(Oc2nsnc2OC2CN3CCCC2C3)CCC1` (mixture of isomers) [Compound 174, (±)-endo-3-(2-Cyclohexenyloxy)-4-(1-azabicyclo[3.2.1]octyl-6-oxy)-1,2,5-thiadiazole] are 12 nM and 2.1 nM.
Take `c1ccc(OCCOc2nsnc2OC2CN3CCC2CC3)cc1` (racemic) [Compound 112, (±)-3-(2-Phenoxyethoxy)-4-(1-azabicyclo[2.2.2]octyl-3-oxy)-1,2,5-thiadiazole]: the IC50 in assay [1] (setting [3]) was found to be 153 nM; in assay [2], 16 nM.
As to `C#CCCOc1nsnc1OC1CN2CCC1CC2` (racemic) [Compound 113, (±)-3-(3-butynoxy)-4-(1-azabicyclo[2.2.2]octyl-3-oxy)-1,2,5-thiadiazole], the IC50 is 23 nM in assay [1] and 3.6 nM in assay [2].
With `c1ccc(CCSc2nsnc2OC2CN3CCC2CC3)cc1` (racemic) [Compound 43, (±)-3-(2-Phenylethylthio)-4-(1-azabicyclo[2.2.2]octyl-3-oxy)-1,2,5-thiadiazole], the IC50 stood at 33 nM in assay [1] and 29 nM in assay [2].
